{
  "source": "patent US20220218757A1",
  "about": "“THERAPEUTICALLY ACTIVE CELLS AND EXOSOMES” (Cedars-Sinai Medical Center, priority 2019, published 2022)",
  "key": {"β-catenin": {"system": "β-catenin", "test": "Total β-catenin ELISA of cells", "format": "cell-based, Human", "conditions": "for duration / decay of effect on β-catenin after GSK3β inhibition: CDCs, BIO (reversible) vs tideglusib (irreversible)", "method": "(§1) Cell lysates were collected for ELISA and western blot. For ELISA, 4×10^5 cells were collected and pelleted at 1,000 rpm for 5 min at 4° C. Cell pellets were lysed in 1× lysis buffer (Affymetrix eBioscience InstantOne ELISA kit) and incubated for 10 min at room temperature with regular agitation. For western blot, cells were pelleted and resuspended in 1× RIPA buffer (Alfa Aesar) with protease inhibitor on ice for 30 min. Protein lysates were isolated by centrifugation at 14,000 rpm for 15 min at 4° C. Protein concentration was measured using a DC™ Protein Assay kit (Bio-Rad).\n(§2) Cells were exposed to 5 μM of 6-bromoindirubin-3′-oxime (BIO, Sigma-Aldrich) or 4-Benzyl-2-(naphthalene-1-yl)-[1,2,4]thiadiazolidine-3,5-dione (Tideglusib, Sigma-Aldrich) for 48 or 72 hours in complete media.\nTotal β-catenin ELISA was performed according the protocol described with a final sample concentration of 0.01 mg/ml and positive control of 0.1 mg/ml (Affymetrix eBioscience InstantOne™ ELISA)."}, "CDCs [1]": {"system": "CDCs", "test": "Flow cytometry of CD90, CD105, DDR2 and LRP5/6", "format": "cell-based, Human", "method": "as §2\nCells were harvested and counted (2×10^5 cells per condition). Cells were washed with 1% bovine serum albumin (BSA) in 1× phosphate-buffered saline (PBS) and stained with the appropriate antibody (BD Pharmingen) for 1 hr at 4° C. Cells were then washed again and resuspended in 1% BSA in 1×PBS. BD Cytofix/Cytoperm™ kit was used for cell permeabilization before staining. Flow analysis was done using a BD FACS Canto™ II instrument."}, "CDCs [2]": {"system": "CDCs", "test": "RNA sequencing and qPCR of BIO-exposed versus vehicle-exposed CDCs (LP, LPL, imCDC)", "format": "cell-based, Human", "method": "(§3) Cell RNA was isolated using a miRNeasy Mini Kit (Qiagen). Exosome RNA was isolated using the Urine Exosome RNA Isolation Kit (Norgen Biotek Corp.). Reverse transcription was performed using High Capacity RNA to cDNA (Thermo Fisher Scientific) or TaqMan® microRNA Reverse Transcription Kit (Applied Biosystems) for RNA and micro RNA, respectively. Real-time PCR was performed using TaqMan Fast Advanced Master Mix and the appropriate TaqMan® Gene Expression Assay (Thermo Fisher Scientific). Samples were processed and analyzed using a QuantStudio™ 12K Flex Real-Time PCR system and each reaction was performed in triplicate samples (with housekeeping genes hprt1 for mRNA and miR23a for microRNA). The gene expression assays/microRNAs used in this study were as follows (Thermo Fisher Scientific):\nCell and exosome RNA samples were sequenced at the Cedars Sinai Genomics Core. Total RNA and Small RNA were analyzed using an Illumina NextSeq 500 platform for cell and exosome samples respectively.\nas §2\nTo understand how β-catenin drives potency, the transcriptomes of LP CDCs to those of the same cell batches after exposure to BIO were compared. As stated above, three scenarios associated with low potency were identified: donor-related, in which all lots from a given donor lack potency; lot-dependent, in which some lots are potent and others are not; and immortalized CDCs (imCDCs). Using RNA sequencing, LP cells from each scenario were compared after exposure to BIO versus vehicle alone. […] Differential expression of microRNAs (miRs) between the two groups further identified a cognate miR coregulated with mest (miR-335; FIG. 3C, FIGS. 9D and 9E). […] Mest modulates Wnt/β-catenin signaling indirectly through glucosyltransferases that prevent LRP5/6 receptor maturation. […]"}, "EXTL1": {"system": "EXTL1", "test": "Western blot of EXTL1 protein", "format": "cell-based, Human", "conditions": "CDC (LP) exposure to BIO", "method": "as §1"}, "[3]": {"system": "SCID/beige mice with acute myocardial infarction", "test": "Mouse acute MI model (echocardiography, Masson's trichrome histology, mortality)", "format": "in vivo", "conditions": "for myocardial function in mice with MI, drugs given independent of CDCs: relative to controls", "method": "Acute myocardial infarction was induced in three-month-old male severe combined immunodeficient (SCID)/beige mice (n=5-7 animals per group). Within 10 min of coronary ligation, 1×10^5 cells, EVs, drugs (or vehicle) were injected intramyocardially.\nEchocardiography. Echocardiography study was performed in the SCID/beige at 24 hr (baseline) and three weeks after surgery using Vevo 3100 or 770 Imaging System (Visual Sonics) as described. The average of the left ventricular ejection fraction was analyzed from multiple left ventricular end-diastolic and left ventricular end-systolic measurements.\nAnimals were sacrificed 3 weeks after MI induction. Hearts were harvested and a transverse cut was made slightly above the MI suture. The apical portion was then embedded in optimum cutting temperature solution in a base mold/embedding ring block (Tissue Tek). Blocks were immediately frozen by submersion in cold 2-methylbutane. Hearts were sectioned at a thickness of 5 μm.\nTwo slides containing a total of four sections per heart were stained using Masson's trichrome stain. In brief, sections were treated overnight in Bouin's solution. Slides were then rinsed for 10 min under running water and stained with Weigert's hematoxylin for 5 min. Slides were then rinsed and stained with scarlet-acid fuchsin for 5 min and rinsed again. Slides were then stained with phosphotungstic/phosphomolybdic, aniline blue, and 2% acetic acid for 5 min each. Slides were then rinsed, dried, and mounted using DPX mounting media."}, "immortalized CDCs": {"system": "immortalized CDCs", "format": "cell-based, Human", "method": "as §2"}, "CDC EVs": {"system": "CDC EVs", "test": "qPCR of miRs in EVs from BIO-exposed versus vehicle-exposed CDCs", "format": "cell-based, Human", "conditions": "EVs of LP, LPL, imCDC exposed to BIO vs vehicle", "method": "Extracellular Vesicles were harvested from primary CDCs at passage 5 or older passages from transduced cells using a hypoxic cycling method used previously. Briefly, cells were grown to confluence at 20% O2/5% CO2 at 37° C., and then cells were serum-free at 2% O2/5% CO2 at 37° C. overnight after one wash. Conditioned media was collected and filtered through 0.45 μm filter to remove apoptotic bodies and cellular debris and frozen for later use at −80° C. EVs were purified using centrifugal ultrafiltration with a 1000 KDa molecular weight cutoff filter (Sartorius). EV preparations were analyzed through Malvern Nanosight NS300 Instrument (Malvern Instruments) with the following acquisition parameters: camera levels of 15, detection level less than or equal to 5, number of videos taken 4, and video length of 30 s.\nas §3, with “Real-time PCR was performed using TaqMan Fast Advanced Master Mix and the appropriate TaqMan® Gene Expression Assay (Thermo Fisher Scientific).” left out, “The gene expression assays/microRNAs used in this study were as follows (Thermo Fisher Scientific):” left out"}},
  "data": [
    {"smiles": "O=C1Nc2cc(Br)ccc2/C1=C1/Nc2ccccc2/C1=N\\O", "note": "[BIO, 6-bromoindirubin-3′-oxime]", "values": [
      {"measurement": "concentration at which BIO is maximally effective in CDCs (β-catenin ELISA)", "setting": "β-catenin; CDCs exposed to increasing concentrations of BIO", "result": 5, "unit": "µM"},
      {"measurement": "duration / decay of effect on β-catenin after GSK3β inhibition", "setting": "β-catenin", "result": "more rapid decay of effect"},
      {"measurement": "β-catenin levels", "setting": "β-catenin; LP CDC line exposed to 5 μM BIO vs vehicle", "result": "increase β-catenin levels"},
      {"measurement": "expression of CD90", "setting": "CDCs [1]; BIO-exposed LP cells", "result": "decreased the expression of CD90"},
      {"measurement": "expression of CD105", "setting": "CDCs [1]; BIO-exposed LP cells", "result": "without affecting"},
      {"measurement": "expression of DDR2", "setting": "CDCs [1]; BIO-exposed LP cells", "result": "without affecting"},
      {"measurement": "LRP5/6 level (flow cytometry)", "setting": "CDCs [1]; LP CDCs exposed to BIO", "result": "upregulated its glycosylation target LRP5/6 (although that difference was not statistically significant"},
      {"measurement": "miR-335 expression in cells", "setting": "CDCs [2]; BIO vs vehicle, LP, LPL and imCDC", "result": "downregulated"},
      {"measurement": "downregulation of mest", "setting": "CDCs [2]; BIO vs vehicle, fold changes pooled over LP, LPL and imCDC", "result": "~30", "unit": "fold"},
      {"measurement": "LRP5/6 transcripts", "setting": "CDCs [2]; BIO-exposed LP, LPL and imCDCs, qPCR", "result": "unchanged"},
      {"measurement": "EXTL1 protein levels", "setting": "EXTL1", "result": "decreased EXTL1 protein levels"},
      {"measurement": "potency of immortalized CDCs after exposure to BIO", "setting": "[3]; imCDC pre-exposed to BIO, then injected", "result": "restored potency"},
      {"measurement": "myocardial function in mice with MI, drugs given independent of CDCs", "setting": "[3]", "result": "Neither BIO nor the canonical Wnt inhibitor JW67 significantly altered myocardial function"},
      {"measurement": "cell growth and viability", "setting": "immortalized CDCs", "result": "cell growth and viability were undermined"},
      {"measurement": "EV levels of miR-335", "setting": "CDC EVs", "result": "decreased significantly"}
    ]},
    {"smiles": "O=C1Nc2ccccc2C12OCC1(CO2)COC2(OC1)C(=O)Nc1ccccc12", "note": "(centres unmarked) [JW67]", "values": [
      {"measurement": "myocardial function in mice with MI, drugs given independent of CDCs", "setting": "[3]", "result": "Neither BIO nor the canonical Wnt inhibitor JW67 significantly altered myocardial function"}
    ]},
    {"smiles": "O=c1sn(-c2cccc3ccccc23)c(=O)n1Cc1ccccc1", "note": "[Tideglusib, 4-Benzyl-2-(naphthalene-1-yl)-[1,2,4]thiadiazolidine-3,5-dione]", "values": [
      {"measurement": "duration / decay of effect on β-catenin after GSK3β inhibition", "setting": "β-catenin", "result": "directionally similar but longer-lasting effects"}
    ]}
  ]
}
